Laboratory results: article PMC4929710, “Specificity and mechanism of action of alpha-helical membrane-active peptides interacting with model and biological membranes by single-molecule force spectroscopy” (Scientific Reports, 2016)
Read-outs that look alike come from different tables or passages of the source.

What was measured:
A549 cells = type: cell-based, human; conditions: 24 h
Description: (§1) The MTT cell proliferation assay was used to investigate the anticancer activity and cytotoxicity of MAPs against cancer cell lines (HeLa, A549, SGC-7901, and B16) and normal cells (3T3-L1), respectively. Cells (5 × 10^3) were seeded in 96-well plates and incubated overnight. The peptide samples were then added to cells with final concentrations ranging from 1 μM to 125 μM. After 24 h, 20 μL of 5 mg/mL MTT solution in PBS was added to the cells and treated for 4 h at 37 °C. The formazan crystals were dissolved by 150 μL of dimethyl sulfoxide (DMSO). Finally, the absorbance was determined at 492 nm. The results were expressed as IC50, representing the concentration at which cell viability was reduced by 50%. All assays were repeated in triplicate.

HeLa cells = type: cell-based, human; conditions: 24 h
Description: as §1

SGC7901 cells = type: cell-based, human; conditions: 24 h
Description: as §1

A. laidlawii cells = assay: Single-molecule force spectroscopy (AFM); type: binding, Acholeplasma laidlawii; conditions: RMS ± SD; N-terminal Cys peptide on AFM tip via PEG linker
Excerpt: (§2) Based on the above results, five selected peptides of V13L, A12L/A20L, V13K, V13E, and L6A/L17A, with different hydrophobicity and charges were used to examine the interaction probabilities and forces between peptides and membranes, both on the lipid model membranes and on the biological membranes by SMFS based on AFM, respectively. A cysteine residue was covalently introduced to the N-terminus of peptides and provided a free sulfhydryl group to modify the tips of the AFM. A PEG linker was used since each heterobifunctional PEG–NHS linker (approximately 20 nm) can only covalently connect with a single peptide molecule, which guarantees a single-molecule interaction between MAPs and biological membranes in real time[19]. If an AFM tip was functionalized with two or more peptides, where several peaks were recorded. In the reports, data with two peaks were not collected and calculated. For one force–distance cycle, one peptide-functionalized AFM tip approached the model and biological membranes right on the top, and the subsequent tip was withdrawn from the cell membranes to retrace the process. […] In addition, blocking experiment was used to test the specificity of these force events. As the electrostatic attraction is one important reason for peptides approaching model membranes and biological membranes, the Tris-HCl buffer including plenty amino groups[20] was injected into the working chamber and inhibits the interactions between MAPs and model membranes/biological membranes. […] The unbinding forces of V13L against different model membranes and biological membranes with the loading rate of 1 × 10^5 pN s^−1 are shown in Fig. 3c,f–h,j–l.
(§3) The AFM tip was first washed with concentrated sulfuric acid and hydrogen peroxide (3:1, v:v). The tip was dried using ozone (O3) for 15 min and dried overnight in a dryer. The tip was then modified with APTES under an argon atmosphere and the peptide connected with a PEG–NHS linker. Finally, the AFM tip linked with the peptide was washed three times in PBS and kept at 4 °C. A 500-μL LUV suspension was deposited on Lys coated glass and the LUVs were absorbed on the surface for 1 h at 65 °C [9][29]. A. laidlawii was deposited on poly-L-lysine coated glass and absorbed for 1 h at 37 °C [30]. The 3T3-L1 and HeLa cells were cultured on glass slides in Dulbecco’s modified Eagle’s medium (DMEM). Before performing force spectroscopy experiments, the cells were washed with fresh DMEM three times to remove the cell metabolites. Isolation of chicken erythrocytes was carried out at room temperature. Then the erythrocytes were washed three times in 2 mL PBS buffer by centrifuge (1,000 rpm) and resuspended in PBS buffer. 200 μL erythrocyte suspension were deposited onto poly-L-lysine coated glass for 20 min[10]. […]

[1] = Circular dichroism (CD) analysis; type: physicochemical; conditions: for α-Helix (%) 50% TFE / α-Helix (%) Benign: relative to molar ellipticity of A12L/A20L in 50% TFE; for [θ]222 Benign / [θ]222 50% TFE: CD, 25 °C; for [θ]222 Benign: benign buffer pH 7.0, 100 mM KCl, 50 mM KH2PO4/K2HPO4; for [θ]222 50% TFE: benign buffer:TFE 1:1 vol/vol; for α-Helix (%) Benign: benign buffer
Description: The secondary structures of the peptides were determined using a Jasco J-810 CD spectrometer (Jasco, Easton, MD) at 25 °C [12]. The benign buffer (pH 7.0, 100 mM KCl, 50 mM KH2PO4/K2HPO4) was used to simulate the hydrophilic environment and 50% 2,2,2-trifluoroethanol (TFE) (benign buffer: TFE = 1: 1, vol/vol) was used to simulate the hydrophobic environment. The mean residue molar ellipticities at 222 nm, [θ]222 (degree·cm^2·dmol^−1), were used to calculate the relative helical contents of MAPs[24].
CD spectroscopy illustrated the secondary structure of peptide analogs under benign environment and 50% TFE to mimic the hydrophobic conditions of cell membranes. CD results are shown in Supplementary Table S2 and Fig. S1. […] The helical content (%) of peptides in two groups relative to the molar ellipticity value of the peptide A12L/A20L in 50% TFE. In addition, except the peptide of V13E, the relative helicity of the peptides are in the same order of V13L>V13A>V13S>V13K and A12L/A20L>A20L>L6A>L6A/L17A in the benign and hydrophobic environments and also in the same order with the peptide hydrophobicity.

3T3-L1 cells [2] = assay: Single-molecule force spectroscopy (AFM); type: binding, mouse; conditions: RMS ± SD; N-terminal Cys peptide on AFM tip via PEG linker
Excerpt: as §2, §3

S. epidermidis ATCC12228 = type: cell-based
Description: (§4) Then, 10 μL of peptides was added. […] All assays were repeated in triplicate.

E. coli ATCC25922 = type: cell-based
Description: as §4

P. aeruginosa ATCC27853 = type: cell-based
Description: as §4

S. aureus ATCC25923 = type: cell-based
Description: as §4

[3] = system: gram-positive bacteria (S. aureus and S. epidermidis); type: cell-based
Description: as §4

[4] = system: gram-negative bacteria (P. aeruginosa and E. coli); type: cell-based
Description: as §4

3T3-L1 cells [5] = type: cell-based, mouse; conditions: 24 h
Description: as §1

B16 cells = type: cell-based, mouse; conditions: 24 h
Description: as §1

[6] = MTT, 1-125 μM, triplicate, read-out: IC50 A549
[7] = MTT, 1-125 μM, triplicate, read-out: IC50 HeLa
[8] = MTT, 1-125 μM, triplicate, read-out: IC50 SGC7901
[9] = MH medium, 5 × 10^5 CFU/mL, 24 h, 37 °C, triplicate
[10] = geometric mean of MIC values from two gram-positive strains
[11] = geometric mean of MIC values from two gram-negative strains
[12] = normal cells, MTT, 1-125 μM, triplicate, read-out: IC50 3T3-L1
[13] = MTT, 1-125 μM, triplicate, read-out: IC50 B16

CC[C@H](C)[C@H](NC(=O)[C@H](C)NC(=O)[C@H](CCCCN)NC(=O)[C@H](CC(C)C)NC(=O)[C@H](C)NC(=O)[C@@H](NC(=O)[C@H](Cc1cnc[nH]1)NC(=O)[C@H](CC(C)C)NC(=O)[C@@H](NC(=O)[C@@H](NC(=O)[C@H](CCCCN)NC(=O)[C@H](CCCCN)NC(=O)[C@H](C)NC(=O)[C@H](CO)NC(=O)[C@H](CCCCN)NC(=O)[C@H](Cc1ccccc1)NC(=O)[C@@H](NC(=O)[C@H](CCCCN)NC(=O)[C@H](CC(C)C)NC(=O)[C@H](Cc1ccccc1)NC(=O)[C@H](CO)NC(=O)[C@H](CCCCN)NC(=O)[C@H](Cc1c[nH]c2ccccc12)NC(=O)[C@H](CCCCN)NC(C)=O)[C@@H](C)O)[C@@H](C)O)C(C)C)[C@@H](C)O)C(=O)N[C@@H](CO)C(=O)N[C@@H](CO)C(N)=O [Peptide V13K]
IC50 (A549 cells; [6]): 24.4 µM | IC50 (HeLa cells; [7]): 13.1 µM | IC50 (SGC7901 cells; [8]): 18.9 µM | Unbinding force A. laidlawii (A. laidlawii cells): 51 ± 18 pN | α-Helix (%) 50% TFE [1]: 69.85% | [θ]222 Benign [1]: −4236.54 degree·cm^2·dmol^−1 | [θ]222 50% TFE [1]: −30268.40 degree·cm^2·dmol^−1 | α-Helix (%) Benign [1]: 9.77% | Unbinding force 3T3-L1 (3T3-L1 cells [2]): 51 ± 15 pN | G+ MIC S. epidermidis ATCC12228 (S. epidermidis ATCC12228; [9]): 4 µM | G− MIC E. coli ATCC25922 (E. coli ATCC25922; [9]): 8 µM | G− MIC P. aeruginosa ATCC27853 (P. aeruginosa ATCC27853; [9]): 8 µM | G+ MIC S. aureus ATCC25923 (S. aureus ATCC25923; [9]): 32 µM | G+ MIC GM [3, 10]: 11.31 µM | G− MIC GM [4, 11]: 8 µM | IC50 (3T3-L1 cells [5]; [12]): 26.2 µM | IC50 (B16 cells; [13]): 11.9 µM

Ac-KWKSFAKTFKSAKKTVAHTALKAISS-NH2 [L6A/L17A]
IC50 (A549 cells; [6]): > 125 µM | IC50 (HeLa cells; [7]): > 125 µM | IC50 (SGC7901 cells; [8]): > 125 µM | Unbinding force A. laidlawii (A. laidlawii cells): 41 ± 15 pN | α-Helix (%) 50% TFE [1]: 65.58% | [θ]222 Benign [1]: −3589.82 degree·cm^2·dmol^−1 | [θ]222 50% TFE [1]: −28421.80 degree·cm^2·dmol^−1 | α-Helix (%) Benign [1]: 8.28% | Unbinding force 3T3-L1 (3T3-L1 cells [2]): 39 ± 12 pN | G+ MIC S. epidermidis ATCC12228 (S. epidermidis ATCC12228; [9]): 125 µM | G− MIC E. coli ATCC25922 (E. coli ATCC25922; [9]): 125 µM | G− MIC P. aeruginosa ATCC27853 (P. aeruginosa ATCC27853; [9]): 125 µM | G+ MIC S. aureus ATCC25923 (S. aureus ATCC25923; [9]): 125 µM | G+ MIC GM [3, 10]: 125 µM | G− MIC GM [4, 11]: 125 µM | IC50 (3T3-L1 cells [5]; [12]): > 125 µM | IC50 (B16 cells; [13]): > 125 µM

Ac-KWKSFLKTFKSAEKTVLHTALKAISS-NH2 [Peptide V13E]
IC50 (A549 cells): 110 µM | IC50 (HeLa cells): 73.7 µM | IC50 (SGC7901 cells): 92 µM | Unbinding force A. laidlawii (A. laidlawii cells): 55 ± 12 pN | α-Helix (%) 50% TFE [1]: 43.13% | [θ]222 Benign [1]: −3876.86 degree·cm^2·dmol^−1 | [θ]222 50% TFE [1]: −18689.59 degree·cm^2·dmol^−1 | α-Helix (%) Benign [1]: 8.95% | Unbinding force 3T3-L1 (3T3-L1 cells [2]): 51 ± 11 pN | G+ MIC S. epidermidis ATCC12228 (S. epidermidis ATCC12228; ATCC12228, 24 h): 125 µM | G− MIC E. coli ATCC25922 (E. coli ATCC25922; ATCC25922, 24 h): 64 µM | G− MIC P. aeruginosa ATCC27853 (P. aeruginosa ATCC27853; ATCC27853, 24 h): 125 µM | G+ MIC S. aureus ATCC25923 (S. aureus ATCC25923; ATCC25923, 24 h): 125 µM | G+ MIC GM [3]: 125 µM | G− MIC GM [4]: 89.44 µM | IC50 (3T3-L1 cells [5]): > 125 µM | IC50 (B16 cells): 120 µM

Ac-KWKSFLKTFKSALKTVLHTALKAISS-NH2 [Peptide V13L]
IC50 (A549 cells): 2.8 µM | IC50 (HeLa cells): 4.86 µM | IC50 (SGC7901 cells): 2 µM | Unbinding force A. laidlawii (A. laidlawii cells): 27 ± 9 pN | α-Helix (%) 50% TFE [1]: 90.73% | [θ]222 Benign [1]: −10502.62 degree·cm^2·dmol^−1 | [θ]222 50% TFE [1]: −39315.30 degree·cm^2·dmol^−1 | α-Helix (%) Benign [1]: 24.24% | Unbinding force 3T3-L1 (3T3-L1 cells [2]): 30 ± 11 pN | G+ MIC S. epidermidis ATCC12228 (S. epidermidis ATCC12228; ATCC12228, 24 h): 2 µM | G− MIC E. coli ATCC25922 (E. coli ATCC25922; ATCC25922, 24 h): 4 µM | G− MIC P. aeruginosa ATCC27853 (P. aeruginosa ATCC27853; ATCC27853, 24 h): 8 µM | G+ MIC S. aureus ATCC25923 (S. aureus ATCC25923; ATCC25923, 24 h): 8 µM | G+ MIC GM [3]: 4 µM | G− MIC GM [4]: 5.66 µM | IC50 (3T3-L1 cells [5]): 6.55 µM | IC50 (B16 cells): 3.51 µM
